In PubChem BioAssay (NCI):
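Tested at 5 concentrations; 48 h exposure; 96-well plates; endpoints linearly interpolated, else capped at highest concentration. GI50 is the concentration that inhibits growth by half. TGI marks complete inhibition of growth.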

How the values were obtained:
Test in all cases: growth of human tumour cells (NCI), 48 h
786-0 renal = test system: 786-0 renal
A498 renal = test system: A498 renal
A549 NSCLC = test system: A549 NSCLC
ACHN renal = test system: ACHN renal
BT-549 breast = test system: BT-549 breast
CAKI-1 renal = test system: CAKI-1 renal
CCRF-CEM leukemia = test system: CCRF-CEM leukemia
COLO 205 colon = test system: COLO 205 colon
DU-145 prostate = test system: DU-145 prostate
EKVX NSCLC = test system: EKVX NSCLC
HCC-2998 colon = test system: HCC-2998 colon
HCT-116 colon = test system: HCT-116 colon
HCT-15 colon = test system: HCT-15 colon
HL-60(TB) leukemia = test system: HL-60(TB) leukemia
HOP-62 NSCLC = test system: HOP-62 NSCLC
HS 578T breast = test system: HS 578T breast
HT29 colon = test system: HT29 colon
IGROV1 ovarian = test system: IGROV1 ovarian
K-562 leukemia = test system: K-562 leukemia
KM12 colon = test system: KM12 colon
LOX IMVI melanoma = test system: LOX IMVI melanoma
M14 melanoma = test system: M14 melanoma
MALME-3M melanoma = test system: MALME-3M melanoma
MCF7 breast = test system: MCF7 breast
MDA-MB-231 breast = test system: MDA-MB-231 breast
MDA-MB-435 = test system: MDA-MB-435
MOLT-4 leukemia = test system: MOLT-4 leukemia
NCI-H226 lung = test system: NCI-H226 lung
NCI-H23 lung = test system: NCI-H23 lung
NCI-H460 lung = test system: NCI-H460 lung
NCI-H522 lung = test system: NCI-H522 lung
NCI/ADR-RES ovarian = test system: NCI/ADR-RES ovarian
OVCAR-4 ovarian = test system: OVCAR-4 ovarian
OVCAR-5 ovarian = test system: OVCAR-5 ovarian
OVCAR-8 ovarian = test system: OVCAR-8 ovarian
PC-3 prostate = test system: PC-3 prostate
RPMI-8226 leukemia = test system: RPMI-8226 leukemia
RXF 393 renal = test system: RXF 393 renal
SF-268 CNS = test system: SF-268 CNS
SF-295 CNS = test system: SF-295 CNS
SF-539 CNS = test system: SF-539 CNS
SK-MEL-2 melanoma = test system: SK-MEL-2 melanoma
SK-MEL-28 melanoma = test system: SK-MEL-28 melanoma
SK-MEL-5 melanoma = test system: SK-MEL-5 melanoma
SK-OV-3 ovarian = test system: SK-OV-3 ovarian
SN12C renal = test system: SN12C renal
SNB-19 CNS = test system: SNB-19 CNS
SNB-75 CNS = test system: SNB-75 CNS
SR leukemia = test system: SR leukemia
SW-620 colon = test system: SW-620 colon
T-47D breast = test system: T-47D breast
TK-10 renal = test system: TK-10 renal
U251 CNS = test system: U251 CNS
UACC-257 melanoma = test system: UACC-257 melanoma
UACC-62 melanoma = test system: UACC-62 melanoma
UO-31 renal = test system: UO-31 renal

Compound: O=C(NCc1ncc[nH]1)c1ccc(-c2nc3ccc4[nH]ncc4c3c3c2CCCC3)cc1
- GI50 (786-0 renal): 1.97 µM
- TGI (786-0 renal): 12.1 µM
- GI50 (A498 renal): 0.958 µM
- TGI (A498 renal): 4.38 µM
- GI50 (A549 NSCLC): 8.04 µM
- TGI (A549 NSCLC): > 50 µM
- GI50 (ACHN renal): 1.6 µM
- TGI (ACHN renal): > 50 µM
- GI50 (BT-549 breast): 0.957 µM
- TGI (BT-549 breast): 5.48 µM
- GI50 (CAKI-1 renal): 1.08 µM
- TGI (CAKI-1 renal): 4.8 µM
- GI50 (CCRF-CEM leukemia): 1.29 µM
- TGI (CCRF-CEM leukemia): > 50 µM
- GI50 (COLO 205 colon): 1.12 µM
- TGI (COLO 205 colon): 3.44 µM
- GI50 (DU-145 prostate): 2.17 µM
- TGI (DU-145 prostate): > 50 µM
- GI50 (EKVX NSCLC): 2.86 µM
- TGI (EKVX NSCLC): 24.2 µM
- GI50 (HCC-2998 colon): 1.94 µM
- TGI (HCC-2998 colon): 8.73 µM
- GI50 (HCT-116 colon): 0.58 µM
- TGI (HCT-116 colon): > 50 µM
- GI50 (HCT-15 colon): 6.28 µM
- TGI (HCT-15 colon): > 50 µM
- GI50 (HL-60(TB) leukemia): 1.64 µM
- TGI (HL-60(TB) leukemia): 8.98 µM
- GI50 (HOP-62 NSCLC): 1.5 µM
- TGI (HOP-62 NSCLC): 9.57 µM
- GI50 (HS 578T breast): 1.25 µM
- TGI (HS 578T breast): 7.65 µM
- GI50 (HT29 colon): 2.66 µM
- TGI (HT29 colon): > 50 µM
- GI50 (IGROV1 ovarian): 0.818 µM
- TGI (IGROV1 ovarian): 7.64 µM
- GI50 (K-562 leukemia): 2.02 µM
- TGI (K-562 leukemia): > 50 µM
- GI50 (KM12 colon): 1.61 µM
- TGI (KM12 colon): 9.87 µM
- GI50 (LOX IMVI melanoma): 1.46 µM
- TGI (LOX IMVI melanoma): 6.73 µM
- GI50 (M14 melanoma): 1.43 µM
- TGI (M14 melanoma): 7.44 µM
- GI50 (MALME-3M melanoma): 1.31 µM
- TGI (MALME-3M melanoma): 3.67 µM
- GI50 (MCF7 breast): 1.17 µM
- TGI (MCF7 breast): 6.76 µM
- GI50 (MDA-MB-231 breast): 1.84 µM
- TGI (MDA-MB-231 breast): 10.9 µM
- GI50 (MDA-MB-435): 1.66 µM
- TGI (MDA-MB-435): 7.05 µM
- GI50 (MOLT-4 leukemia): 1.51 µM
- TGI (MOLT-4 leukemia): 16.8 µM
- GI50 (NCI-H226 lung): 1.4 µM
- TGI (NCI-H226 lung): 17.3 µM
- GI50 (NCI-H23 lung): 1.82 µM
- TGI (NCI-H23 lung): 8.21 µM
- GI50 (NCI-H460 lung): 1.94 µM
- TGI (NCI-H460 lung): 7.83 µM
- GI50 (NCI-H522 lung): 0.869 µM
- TGI (NCI-H522 lung): 2.85 µM
- GI50 (NCI/ADR-RES ovarian): > 50 µM
- TGI (NCI/ADR-RES ovarian): > 50 µM
- GI50 (OVCAR-4 ovarian): 3.19 µM
- TGI (OVCAR-4 ovarian): 19.7 µM
- GI50 (OVCAR-5 ovarian): 9.18 µM
- TGI (OVCAR-5 ovarian): > 50 µM
- GI50 (OVCAR-8 ovarian): 1.81 µM
- TGI (OVCAR-8 ovarian): 17.3 µM
- GI50 (PC-3 prostate): 1.81 µM
- TGI (PC-3 prostate): 32 µM
- GI50 (RPMI-8226 leukemia): 6.15 µM
- TGI (RPMI-8226 leukemia): 23.4 µM
- GI50 (RXF 393 renal): 0.603 µM
- TGI (RXF 393 renal): 2.76 µM
- GI50 (SF-268 CNS): 1.33 µM
- TGI (SF-268 CNS): 8.88 µM
- GI50 (SF-295 CNS): 3 µM
- TGI (SF-295 CNS): 14.9 µM
- GI50 (SF-539 CNS): 1.21 µM
- TGI (SF-539 CNS): 5.85 µM
- GI50 (SK-MEL-2 melanoma): 1.1 µM
- TGI (SK-MEL-2 melanoma): 2.87 µM
- GI50 (SK-MEL-28 melanoma): 1.19 µM
- TGI (SK-MEL-28 melanoma): 4.6 µM
- GI50 (SK-MEL-5 melanoma): 1.93 µM
- TGI (SK-MEL-5 melanoma): 7.51 µM
- GI50 (SK-OV-3 ovarian): 0.707 µM
- TGI (SK-OV-3 ovarian): 3.3 µM
- GI50 (SN12C renal): 1.69 µM
- TGI (SN12C renal): 10.6 µM
- GI50 (SNB-19 CNS): 1.85 µM
- TGI (SNB-19 CNS): 38.1 µM
- GI50 (SNB-75 CNS): 1.61 µM
- TGI (SNB-75 CNS): 5.2 µM
- GI50 (SR leukemia): 0.549 µM
- TGI (SR leukemia): 27.7 µM
- GI50 (SW-620 colon): 1.36 µM
- TGI (SW-620 colon): > 50 µM
- GI50 (T-47D breast): 1.18 µM
- TGI (T-47D breast): 6.13 µM
- GI50 (TK-10 renal): 1.66 µM
- TGI (TK-10 renal): > 50 µM
- GI50 (U251 CNS): 1.68 µM
- TGI (U251 CNS): 11.6 µM
- GI50 (UACC-257 melanoma): 3.61 µM
- TGI (UACC-257 melanoma): 18.8 µM
- GI50 (UACC-62 melanoma): 1.38 µM
- TGI (UACC-62 melanoma): 6.47 µM
- GI50 (UO-31 renal): 7.57 µM
- TGI (UO-31 renal): 22.6 µM
